Settings: Liquid; for speed of sound: Pulse-echo method; for mass density: Vibrating tube method

OC1CCCC1 [cyclopentanol]
Settings | mass density [kg/m3] | speed of sound [m/s]
292.85 K, 15200 kPa | – | 1519.5
292.85 K, 30390 kPa | – | 1576.3
292.85 K, 45590 kPa | – | 1629.1
292.85 K, 60790 kPa | – | 1677.8
292.85 K, 75990 kPa | – | 1723.9
292.85 K, 91180 kPa | – | 1767.2
292.85 K, 101320 kPa | – | 1795
292.86 K, 100 kPa | – | 1454.4
293.15 K, 101.33 kPa | 946.792 | –
298.14 K, 15200 kPa | – | 1500.4
298.14 K, 30390 kPa | – | 1557.8
298.14 K, 45590 kPa | – | 1611.5
298.14 K, 60790 kPa | – | 1661
298.14 K, 75990 kPa | – | 1707.2
298.14 K, 91180 kPa | – | 1751.2
298.14 K, 101320 kPa | – | 1779.3
298.15 K, 101.33 kPa | 942.856 | 1435.1
298.17 K, 100 kPa | – | 1435
303.12 K, 15200 kPa | – | 1482.2
303.12 K, 30390 kPa | – | 1540.4
303.12 K, 45590 kPa | – | 1595.1
303.12 K, 60790 kPa | – | 1645.6
303.12 K, 75990 kPa | – | 1692.6
303.12 K, 91180 kPa | – | 1737.2
303.12 K, 101320 kPa | – | 1765.5
303.15 K, 100 kPa | – | 1416.9
303.16 K, 101.33 kPa | 938.874 | –
308.11 K, 15200 kPa | – | 1464.8
308.11 K, 30390 kPa | – | 1524.5
308.11 K, 45590 kPa | – | 1579.4
308.11 K, 60790 kPa | – | 1630.6
308.11 K, 75990 kPa | – | 1678
308.11 K, 101320 kPa | – | 1751.6
308.12 K, 91180 kPa | – | 1723
308.13 K, 100 kPa | – | 1398.7
308.15 K, 101.33 kPa | 934.843 | –
313.09 K, 15200 kPa | – | 1447.6
313.09 K, 30390 kPa | – | 1508.3
313.09 K, 45590 kPa | – | 1564
313.09 K, 60790 kPa | – | 1616.1
313.09 K, 75990 kPa | – | 1664.1
313.09 K, 91180 kPa | – | 1709.5
313.09 K, 101320 kPa | – | 1738.6
313.12 K, 100 kPa | – | 1380.6
313.15 K, 101.33 kPa | 930.754 | –
318.15 K, 101.33 kPa | 926.613 | –
318.19 K, 15200 kPa | – | 1430.8
318.19 K, 45590 kPa | – | 1548.6
318.19 K, 60790 kPa | – | 1601.4
318.19 K, 75990 kPa | – | 1650.3
318.19 K, 101320 kPa | – | 1725.3
318.2 K, 30390 kPa | – | 1492.4
318.2 K, 91180 kPa | – | 1695.8
318.29 K, 100 kPa | – | 1361.8

CCCCCO [pentan-1-ol]
Settings | mass density [kg/m3] | speed of sound [m/s]
292.81 K, 100 kPa | – | 1293.9
292.88 K, 76010 kPa | – | 1611.2
292.88 K, 91210 kPa | – | 1660
292.88 K, 101330 kPa | – | 1691.4
292.91 K, 45590 kPa | – | 1501.6
292.91 K, 60810 kPa | – | 1558.3
292.95 K, 15200 kPa | – | 1371.5
292.96 K, 30400 kPa | – | 1439.7
293.15 K, 101.33 kPa | 814.5 | –
297.93 K, 30400 kPa | – | 1424.8
297.93 K, 45600 kPa | – | 1487.1
297.93 K, 60800 kPa | – | 1544.3
297.93 K, 75990 kPa | – | 1597.6
297.93 K, 91190 kPa | – | 1647.3
297.93 K, 101340 kPa | – | 1678.7
297.94 K, 15200 kPa | – | 1355.5
298.15 K, 101.33 kPa | 810.84 | 1275.2
298.18 K, 100 kPa | – | 1275.1
303.05 K, 45600 kPa | – | 1472.8
303.06 K, 15200 kPa | – | 1339.3
303.06 K, 30410 kPa | – | 1409.7
303.06 K, 91180 kPa | – | 1634.6
303.06 K, 101330 kPa | – | 1666.3
303.1 K, 60790 kPa | – | 1530.6
303.1 K, 76000 kPa | – | 1584.1
303.15 K, 100 kPa | – | 1258
303.15 K, 101.33 kPa | 807.155 | –
308.04 K, 45600 kPa | – | 1459
308.05 K, 76000 kPa | – | 1571.6
308.06 K, 60800 kPa | – | 1517.5
308.06 K, 91210 kPa | – | 1622.5
308.06 K, 101330 kPa | – | 1654.2
308.08 K, 15200 kPa | – | 1323.5
308.08 K, 30400 kPa | – | 1394.8
308.13 K, 100 kPa | – | 1240.9
308.15 K, 101.33 kPa | 803.442 | –
313.02 K, 101340 kPa | – | 1642.9
313.03 K, 30400 kPa | – | 1380.7
313.03 K, 60790 kPa | – | 1504.8
313.03 K, 75990 kPa | – | 1559.2
313.03 K, 91190 kPa | – | 1610.7
313.04 K, 15210 kPa | – | 1308.5
313.05 K, 45600 kPa | – | 1445.5
313.11 K, 100 kPa | – | 1224.1
313.15 K, 101.33 kPa | 799.705 | –
318.15 K, 101.33 kPa | 795.912 | –
318.49 K, 76000 kPa | – | 1546.4
318.49 K, 91200 kPa | – | 1598.1
318.5 K, 60800 kPa | – | 1491.2
318.51 K, 45590 kPa | – | 1431.3
318.51 K, 101330 kPa | – | 1630.8
318.52 K, 15200 kPa | – | 1292
318.52 K, 30400 kPa | – | 1365.4
318.68 K, 100 kPa | – | 1205.5

From the NIST ThermoML archive (doi:10.1021/je8009418)
